Results taken from ChEMBL document CHEMBL1123144, “Studies on 4(1H)-quinazolinones. 5. Synthesis and antiinflammatory activity of 4(1H)-quinazolinone derivatives” (J Med Chem, 1985).
Calls of active or inactive are those of the source. The rule behind the calls is not given here.

Assays:
Rattus norvegicus [1] = assay: Percent inhibition against carrageenan-induced rat paw edema at 50 mg/kg dose administered perorally; 0-10%; format: functional; conditions: route oral
Rattus norvegicus [2] = assay: Percent inhibition against carrageenan-induced rat paw edema at 50 mg/kg dose administered perorally; 21-30%; format: functional; conditions: route oral
Rattus norvegicus [3] = assay: Percent inhibition against carrageenan-induced rat paw edema at 50 mg/kg dose administered perorally; format: functional; conditions: route oral
Rattus norvegicus [4] = assay: Percent inhibition against carrageenan-induced rat paw edema at 50 mg/kg dose administered perorally; 11-20%; format: functional; conditions: route oral
Mus musculus [5] = assay: Number of mice bearing ulcer at dose 48 mg/kg out of 5 mices tested; format: functional
Mus musculus [6] = assay: Ulcer index by number of mice bearing ulcer at dose 48 mg/kg out of 5 mice tested; format: functional
Mus musculus [7] = assay: Toxicity by number of mice dead at dose 500 mg/kg out of 5 mice tested by oral administration route; Value represented as 0/5; format: organism-based; parameters: dose 500 mg/kg, route oral; conditions: in vivo
Rattus norvegicus [8] = assay: Analgesic activity by oral administration of 200 mg/kg; Not effective; format: functional, organism-based; parameters: dose 200 mg/kg
Rattus norvegicus [9] = assay: Anti-inflammatory activity following oral administration; format: functional
Rattus norvegicus [10] = assay: Percent inhibition against carrageenan-induced rat paw edema at 50 mg/kg dose administered perorally; 41-50%; format: functional; conditions: route oral
Rattus norvegicus [11] = assay: Percent inhibition against carrageenan-induced rat paw edema at 50 mg/kg dose administered perorally; 31-40%; format: functional; conditions: route oral
Rattus norvegicus [12] = assay: Analgesic activity by oral administration route; format: functional
Rattus norvegicus [13] = assay: Analgesic activity following oral administration at a dose 30 mg/kg; format: functional

O=c1nc(C2CC2)n(-c2cccc(C(F)(F)F)c2)c2ccccc12
inhibition in vivo at 50 mg/kg (Rattus norvegicus [1]): 10%

CC(C)n1c(-c2ccc(Cl)cc2)nc(=O)c2ccc(Cl)cc21
inhibition in vivo at 50 mg/kg (Rattus norvegicus [2]): 30%

COc1ccc2c(c1)c(=O)nc(C(C)C)n2-c1ccccc1
inhibition in vivo at 50 mg/kg (Rattus norvegicus [3]): ≥ 51%

CC(C)(C)c1nc(=O)c2ccccc2n1-c1ccccc1
inhibition in vivo at 50 mg/kg (Rattus norvegicus [1]): 10%

CC(C)c1nc(=O)c2ccc(N)cc2n1-c1ccccc1
inhibition in vivo at 50 mg/kg (Rattus norvegicus [4]): 20%

COc1cccc2c1c(=O)nc(-c1ccccc1)n2C(C)C
inhibition in vivo at 50 mg/kg (Rattus norvegicus [4]): 20%

CC(C)n1c(-c2ccccc2)nc(=O)c2ccc(Cl)cc21
No. of mice (Mus musculus [5]): 3
Ulcer Index (Mus musculus [6]): 0.2
Toxicity (Mus musculus [7]): 0
ED30 (Rattus norvegicus [8]): inactive
ED30 (Rattus norvegicus [9]): 16 mg/kg
inhibition in vivo at 50 mg/kg (Rattus norvegicus [10]): 50%

CC(C)n1c(-c2ccccc2)nc(=O)c2cc(F)ccc21
inhibition in vivo at 50 mg/kg (Rattus norvegicus [11]): 40%

COc1ccc2c(c1)c(=O)nc(-c1ccccc1F)n2C(C)C
inhibition in vivo at 50 mg/kg (Rattus norvegicus [2]): 30%

CC(C)n1c(-c2cccc(Cl)c2)nc(=O)c2ccccc21
inhibition in vivo at 50 mg/kg (Rattus norvegicus [10]): 50%

CC(C)n1c(-c2ccc(F)cc2)nc(=O)c2cc(Cl)ccc21
ED30 (Rattus norvegicus [12]): 100 mg/kg
ED30 (Rattus norvegicus [9]): 18 mg/kg
inhibition in vivo at 50 mg/kg (Rattus norvegicus [10]): 50%

CC(C)n1c(-c2ccc(Br)cc2)nc(=O)c2ccccc21
inhibition in vivo at 50 mg/kg (Rattus norvegicus [10]): 50%

O=c1nc(C2CCC2)n(-c2ccc(Cl)cc2)c2ccccc12
inhibition in vivo at 50 mg/kg (Rattus norvegicus [2]): 30%

CC(C)c1nc(=O)c2ccccc2n1-c1ccccc1C(=O)O
inhibition in vivo at 50 mg/kg (Rattus norvegicus [4]): 20%

Cc1ccc2c(=O)nc(-c3ccccc3)n(C(C)C)c2c1
inhibition in vivo at 50 mg/kg (Rattus norvegicus [1]): 10%

CCOC(=O)C(C)c1nc(=O)c2ccccc2n1-c1ccccc1 (stereo not given)
inhibition in vivo at 50 mg/kg (Rattus norvegicus [2]): 30%

Cc1ccc(-c2nc(=O)c3ccccc3n2C(C)C)cc1
inhibition in vivo at 50 mg/kg (Rattus norvegicus [1]): 10%

CC(C)c1nc(=O)c2ccccc2n1-c1ccccc1C(N)=O
inhibition in vivo at 50 mg/kg (Rattus norvegicus [1]): 10%

CC(C)n1c(-c2ccc(N)cc2)nc(=O)c2ccccc21
inhibition in vivo at 50 mg/kg (Rattus norvegicus [1]): 10%

O=c1nc(CCl)n(-c2cccc(C(F)(F)F)c2)c2ccccc12
inhibition in vivo at 50 mg/kg (Rattus norvegicus [1]): 10%

O=c1nc(C2CC2)n(-c2ccc([N+](=O)[O-])cc2)c2ccccc12
inhibition in vivo at 50 mg/kg (Rattus norvegicus [1]): 10%

O=c1nc(C2CC2)n(-c2ccc(F)cc2)c2ccccc12
inhibition in vivo at 50 mg/kg (Rattus norvegicus [3]): ≥ 51%

CC(C)c1nc(=O)c2ccccc2n1-c1ccccc1
ED30 (Rattus norvegicus [13]): 70 mg/kg
ED30 (Rattus norvegicus [9]): 30 mg/kg
inhibition in vivo at 50 mg/kg (Rattus norvegicus [11]): 40%

Cc1nc(=O)c2ccccc2n1-c1ccccc1
inhibition in vivo at 50 mg/kg (Rattus norvegicus [1]): 10%

O=c1nc(C2CCCCCC2)n(-c2ccccc2)c2ccccc12
inhibition in vivo at 50 mg/kg (Rattus norvegicus [1]): 10%

CN(C)c1nc(=O)c2ccccc2n1-c1ccccc1
inhibition in vivo at 50 mg/kg (Rattus norvegicus [1]): 10%

Cc1ccccc1-n1c(C(C)C)nc(=O)c2ccccc21
inhibition in vivo at 50 mg/kg (Rattus norvegicus [11]): 40%

CC(C)n1c(-c2ccc([N+](=O)[O-])cc2)nc(=O)c2ccccc21
inhibition in vivo at 50 mg/kg (Rattus norvegicus [1]): 10%

CC(C)C1NC(=O)c2ccccc2N1c1ccccc1 (stereo not given)
inhibition in vivo at 50 mg/kg (Rattus norvegicus [1]): 10%

O=c1nc(C2CCC2)n(-c2ccc([N+](=O)[O-])cc2)c2ccccc12
inhibition in vivo at 50 mg/kg (Rattus norvegicus [1]): 10%

CC(C)n1c(-c2ccc(Cl)cc2)nc(=O)c2cc(Cl)ccc21
inhibition in vivo at 50 mg/kg (Rattus norvegicus [1]): 10%

CCN(CC)Cc1nc(=O)c2ccccc2n1-c1ccccc1
inhibition in vivo at 50 mg/kg (Rattus norvegicus [1]): 10%

CC(C)c1nc(=O)c2ccc(Cl)cc2n1-c1ccccc1
ED30 (Rattus norvegicus [12]): 80 mg/kg
ED30 (Rattus norvegicus [9]): 21 mg/kg
inhibition in vivo at 50 mg/kg (Rattus norvegicus [3]): ≥ 51%

CC(C)c1nc(=O)n(-c2ccccc2)c2ccccc12
inhibition in vivo at 50 mg/kg (Rattus norvegicus [1]): 10%

CC(C)n1c(-c2ccccc2F)nc(=O)c2ccc(Cl)cc21
inhibition in vivo at 50 mg/kg (Rattus norvegicus [11]): 40%

CC(C)n1c(-c2ccccc2)nc(=O)c2cc(Cl)ccc21
inhibition in vivo at 50 mg/kg (Rattus norvegicus [10]): 50%

O=c1nc(C2CCC2)n(-c2ccccc2)c2ccccc12
inhibition in vivo at 50 mg/kg (Rattus norvegicus [2]): 30%

COc1ccc2c(c1)c(=O)nc(-c1ccccc1)n2C(C)C
inhibition in vivo at 50 mg/kg (Rattus norvegicus [11]): 40%

O=C(O)CCc1nc(=O)c2ccccc2n1-c1ccccc1
inhibition in vivo at 50 mg/kg (Rattus norvegicus [1]): 10%
